How the values were obtained:
[1] = molecular target: T1, Full length DGKα (D21-10BG, SignalChem) (Homo sapiens, UniProt P23743); test: Biochemical DGK IC50 assay (ADP-Glo, lipid micelle substrate), DGKα; settings: 1 hour preincubation, 1 hour reaction, room temperature
T1 construct: Full length DGKα (D21-10BG, SignalChem); purchased SignalChem D21-10BG
How it was run: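 Full-length human DGKα with DAG/PS lipid micelle substrate (in octyl glucoside buffer), reacted 1 h at room temperature in 50 mM HEPES, 10 mM MgCl2, 0.01 mM CaCl2, 0.1 mM Na3VO4, 0.01% BSA, 0.005% Tween-20. ADP formed read by ADP-Glo luminescence; IC50 from inhibition across increasing compound concentrations.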

[2] = molecular target: T2, Full length DGKζ (in-house protein M1-V929) (Homo sapiens, UniProt Q13574); test: Biochemical DGK IC50 assay (ADP-Glo, lipid micelle substrate), DGKζ; settings: 1 hour preincubation, 1 hour reaction, room temperature
T2 construct: His (N); TEV site (N); made in house; host or cells: Sf9 insect cells (Bac-to-Bac baculovirus)
How it was run: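 Full-length human DGKζ (M1-V929, His-TEV tagged, Sf9 baculovirus-expressed) with DAG/PS lipid micelle substrate in octyl glucoside, at room temperature in 50 mM HEPES, 10 mM MgCl2, 0.01 mM CaCl2 buffer.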

T1 sequence (P23743 whole entry): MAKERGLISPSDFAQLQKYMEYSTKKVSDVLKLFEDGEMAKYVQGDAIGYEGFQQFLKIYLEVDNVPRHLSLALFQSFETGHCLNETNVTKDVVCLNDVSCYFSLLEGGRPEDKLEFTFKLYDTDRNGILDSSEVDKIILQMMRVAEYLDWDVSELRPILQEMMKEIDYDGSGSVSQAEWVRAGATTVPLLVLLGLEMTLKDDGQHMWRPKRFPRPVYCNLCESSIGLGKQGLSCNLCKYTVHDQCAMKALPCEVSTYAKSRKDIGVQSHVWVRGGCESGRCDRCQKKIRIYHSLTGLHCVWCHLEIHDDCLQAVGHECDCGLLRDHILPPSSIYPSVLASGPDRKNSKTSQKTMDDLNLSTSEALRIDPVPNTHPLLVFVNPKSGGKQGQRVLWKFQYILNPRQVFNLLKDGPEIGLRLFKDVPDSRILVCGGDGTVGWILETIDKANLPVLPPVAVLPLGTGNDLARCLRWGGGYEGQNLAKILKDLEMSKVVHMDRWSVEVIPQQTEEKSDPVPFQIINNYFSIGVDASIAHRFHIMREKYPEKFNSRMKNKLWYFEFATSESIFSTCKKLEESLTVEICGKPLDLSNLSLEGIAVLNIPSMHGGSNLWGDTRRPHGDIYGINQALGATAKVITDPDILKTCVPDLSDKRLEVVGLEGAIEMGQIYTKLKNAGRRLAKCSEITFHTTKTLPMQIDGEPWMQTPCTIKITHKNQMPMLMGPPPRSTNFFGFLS
T2 sequence (Q13574 1-929 isoform Q13574-4): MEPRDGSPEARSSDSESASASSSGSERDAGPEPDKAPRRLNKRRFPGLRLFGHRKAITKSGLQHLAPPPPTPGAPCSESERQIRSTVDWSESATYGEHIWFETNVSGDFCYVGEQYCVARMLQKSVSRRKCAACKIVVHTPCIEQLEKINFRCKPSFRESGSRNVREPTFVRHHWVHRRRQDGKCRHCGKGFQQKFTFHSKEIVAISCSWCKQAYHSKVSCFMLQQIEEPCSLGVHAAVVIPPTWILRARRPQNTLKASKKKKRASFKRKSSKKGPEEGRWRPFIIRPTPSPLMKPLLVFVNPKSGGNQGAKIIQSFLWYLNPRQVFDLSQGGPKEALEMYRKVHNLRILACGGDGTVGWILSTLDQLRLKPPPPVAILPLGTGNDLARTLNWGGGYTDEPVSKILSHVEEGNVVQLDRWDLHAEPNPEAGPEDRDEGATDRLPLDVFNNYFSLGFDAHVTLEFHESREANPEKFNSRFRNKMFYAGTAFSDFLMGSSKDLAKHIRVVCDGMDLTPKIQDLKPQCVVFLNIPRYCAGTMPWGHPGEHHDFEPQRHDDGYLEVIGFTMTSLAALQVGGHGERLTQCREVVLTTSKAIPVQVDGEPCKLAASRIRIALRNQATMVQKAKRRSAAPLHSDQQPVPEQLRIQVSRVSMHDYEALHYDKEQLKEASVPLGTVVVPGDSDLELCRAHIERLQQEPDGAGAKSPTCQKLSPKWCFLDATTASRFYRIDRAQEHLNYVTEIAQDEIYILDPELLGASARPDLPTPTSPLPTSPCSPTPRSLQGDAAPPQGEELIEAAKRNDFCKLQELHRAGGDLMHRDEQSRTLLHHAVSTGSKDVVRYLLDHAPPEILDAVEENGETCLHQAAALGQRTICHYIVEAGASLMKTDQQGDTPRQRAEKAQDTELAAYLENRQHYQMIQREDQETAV

| Structure (SMILES) | IC50 [1] [nM] | IC50 [2] [nM] |
| --- | --- | --- |
| CC(c1ccc2c(c1)OC(F)(F)C(F)(F)O2)N1C[C@H](C)N(c2nc(=O)n(C)c3c2nc(CC#N)n3C)C[C@H]1C (mixture of isomers) [Compound A79, 2-(6-((2S,5R)-2,5-dimethyl-4-(1-(2,2,3,3-tetrafluoro-2,3-dihydrobenzo[b][1,4]dioxin-6-yl)ethyl)piperazin-1-yl)-3,9-dimethyl-2-oxo-3,9-dihydro-2H-purin-8-yl)acetonitrile] | 16400 | 16 |
| CCn1c(CC#N)nc2c(N3C[C@@H](C)N(C(C)c4ccc5c(n4)OC(C)(C)CO5)C[C@@H]3C)nc(=O)n(C)c21 (single isomer, unassigned) [Compound A74b] | > 150000 | 4870 |
| CC(c1ccc2c(c1)OCCO2)N1C[C@H](C)N(c2c(F)c(=O)n(C)c3c2nc(CC#N)n3C)C[C@H]1C (single isomer, unassigned) [Compound A18a] | 23600 | 19 |
| CCn1c(CC#N)nc2c(N3C[C@@H](C)N(C(C)c4ccc5c(c4)OC(C)(C)O5)C[C@@H]3C)c(F)c(=O)n(C)c21 (stereo partly drawn) [Compound A188, 2-(7-((2S,5R)-4-(1-(2,2-dimethylbenzo[d][1,3]dioxol-5-yl)ethyl)-2,5-dimethylpiperazin-1-yl)-3-ethyl-6-fluoro-4-methyl-5-oxo-4,5-dihydro-3H-imidazo[4,5-b]pyridin-2-yl)acetonitrile] | > 150000 | 74 |
| CCn1c(CC#N)nc2c(N3C[C@@H](C)N(C(C)c4ccc5c(c4)OC4(CCC4)O5)C[C@@H]3C)nc(=O)n(C)c21 (single isomer, unassigned) [Compound A169a] | 31700 | 10 |
| CCn1c(CC#N)nc2c(N3C[C@@H](C)N(C(C)c4ccc5c(n4)C(F)(F)CCO5)C[C@@H]3C)nc(=O)n(C)c21 (stereo partly drawn) [Compound A102, 2-(6-((2S,5R)-4-(1-(4,4-difluoro-3,4-dihydro-2H-pyrano[3,2-b]pyridin-6-yl)ethyl)-2,5-dimethylpiperazin-1-yl)-9-ethyl-3-methyl-2-oxo-3,9-dihydro-2H-purin-8-yl)acetonitrile] | > 150000 | 37 |
| CCn1c(CC#N)nc2c(N3C[C@@H](C)N(C(C)c4ccc5c(c4)c(=O)c(C)cn5C)C[C@@H]3C)nc(=O)n(C)c21 (stereo partly drawn) [Compound A193, 2-(6-((2S,5R)-4-(1-(1,3-dimethyl-4-oxo-1,4-dihydroquinolin-6-yl)ethyl)-2,5-dimethylpiperazin-1-yl)-9-ethyl-3-methyl-2-oxo-3,4,5,9-tetrahydro-2H-purin-8-yl)acetonitrile] | > 150000 | > 10000 |
| CC[C@@H]1CN(c2nc(=O)n(C)c3c2nc(CC#N)n3C)[C@@H](C)CN1C(C)c1ccc2c(c1)OC(C)(C)CO2 (single isomer, unassigned) [Compound A63b] | 7400 | 22 |
| CCn1c(CC#N)nc2c(N3C[C@@H](C)N(C(C)c4ccc5c(c4)OC(C)(CC)O5)C[C@@H]3C)nc(=O)n(C)c21 (stereo partly drawn) [Compound A168, 2-(9-ethyl-6-((2S,5R)-4-(1-(2-ethyl-2-methylbenzo[d][1,3]dioxol-5-yl)ethyl)-2,5-dimethylpiperazin-1-yl)-3-methyl-2-oxo-3,9-dihydro-2H-purin-8-yl)acetonitrile] | 64300 | 26 |
| CC[C@H]1CN(C(C)c2ccc3c(c2)OC(C)(C)CO3)[C@H](CC)CN1c1nc(=O)n(C)c2c1nc(CC#N)n2CC (stereo partly drawn) [Compound A67, 2-(6-((2S,5R)-4-(1-(3,3-dimethyl-2,3-dihydrobenzo[b][1,4]dioxin-6-yl)ethyl)-2,5-diethylpiperazin-1-yl)-9-ethyl-3-methyl-2-oxo-3,9-dihydro-2H-purin-8-yl)acetonitrile] | 118000 | 10 |
| CC(c1nc2c(cc1F)OCC(C)(C)O2)N1C[C@H](C)N(c2nc(=O)n(C)c3c2nc(CC#N)n3C)C[C@H]1C (stereo partly drawn) [Compound A162, 2-(6-((2S,5R)-4-(1-(7-fluoro-3,3-dimethyl-2,3-dihydro-[1,4]dioxino[2,3-b]pyridin-6-yl)ethyl)-2,5-dimethylpiperazin-1-yl)-3,9-dimethyl-2-oxo-3,9-dihydro-2H-purin-8-yl)acetonitrile] | 60500 | 33 |
| CCn1c(CC#N)nc2c(N3C[C@@H](C)N(C(C)c4ccc5c(=O)cc(C)oc5c4)C[C@@H]3C)nc(=O)n(C)c21 (stereo partly drawn) [Compound A191, 2-(6-((2S,5R)-2,5-dimethyl-4-(1-(2-methyl-4-oxo-4H-chromen-7-yl)ethyl)piperazin-1-yl)-9-ethyl-3-methyl-2-oxo-3,9-dihydro-2H-purin-8-yl)acetonitrile] | 40900 | 78 |
| CCCn1c(CC#N)nc2c(N3C[C@@H](C)N(C(C)c4ccc5c(c4)OC(C)(C)CO5)C[C@@H]3C)nc(=O)n(C)c21 (stereo partly drawn) [Compound A88, 2-(6-((2S,5R)-4-(1-(3,3-dimethyl-2,3-dihydrobenzo[b][1,4]dioxin-6-yl)ethyl)-2,5-dimethylpiperazin-1-yl)-3-methyl-2-oxo-9-propyl-3,9-dihydro-2H-purin-8-yl)acetonitrile] | 111000 | 4 |
| CCn1c(CC#N)nc2c(N3C[C@@H](C)N(C(C)c4ccc5c(n4)OC(C)CO5)C[C@@H]3C)nc(=O)n(C)c21 (stereo partly drawn) [Compound A89, 2-(6-((2S,5R)-2,5-dimethyl-4-(1-(3-methyl-2,3-dihydro-[1,4]dioxino[2,3-b]pyridin-6-yl)ethyl)piperazin-1-yl)-9-ethyl-3-methyl-2-oxo-3,9-dihydro-2H-purin-8-yl)acetonitrile] | > 150000 | 334 |
| CCn1c(CC#N)nc2c(N3C[C@@H](C)N(C(C)c4cc5c(cc4F)OC(C)(C)O5)C[C@@H]3C)nc(=O)n(C)c21 (single isomer, unassigned) [Compound A174b] | 30600 | 69 |
| CC(c1ccc2c(c1)OC(C)(C)O2)N1C[C@H](C)N(c2nc(=O)n(C)c3c2nc(CC#N)n3C)C[C@H]1C (stereo partly drawn) [Compound A98, 2-(6-((2S,5R)-4-(1-(2,2-dimethylbenzo[d][1,3]dioxol-5-yl)ethyl)-2,5-dimethylpiperazin-1-yl)-3,9-dimethyl-2-oxo-3,9-dihydro-2H-purin-8-yl)acetonitrile] | 11600 | 5 |
| CCn1c(CC#N)nc2c(N3C[C@@H](C)N(C(C)c4nc5c(cc4F)OCC(C)(C)O5)C[C@@H]3C)nc(=O)n(C)c21 (mixture of isomers) [Compound A161, 2-(9-ethyl-6-((2S,5R)-4-(1-(7-fluoro-3,3-dimethyl-2,3-dihydro-[1,4]dioxino[2,3-b]pyridin-6-yl)ethyl)-2,5-dimethylpiperazin-1-yl)-3-methyl-2-oxo-3,9-dihydro-2H-purin-8-yl)acetonitrile] | > 150000 | 81 |
| CC(c1ccc(F)cc1C(F)(F)F)N1C[C@H](C)N(c2cc(=O)n(C)c3sc(CC#N)nc23)C[C@H]1C (stereo partly drawn) [Compound A195, 2-(7-((2S,5R)-4-(1-(4-fluoro-2-(trifluoromethyl)phenyl)ethyl)-2,5-dimethylpiperazin-1-yl)-4-methyl-5-oxo-4,5-dihydrothiazolo[5,4-b]pyridin-2-yl)acetonitrile] | > 150000 | 25 |
| CC(c1ccc2c(c1)OC(C)(C)CO2)N1C[C@H](C)N(c2c(F)c(=O)n(C)c3c2nc(CC#N)n3C)C[C@H]1C (single isomer, unassigned) [Compound A19a] | 27500 | 2.8 |
| CCn1c(CC#N)nc2c(N3C[C@@H](C)N(C(C)c4ccc(C)cc4C(F)(F)F)C[C@@H]3C)nc(=O)n(C)c21 (stereo partly drawn) [Compound A116, 2-(6-((2S,5R)-2,5-dimethyl-4-(1-(4-methyl-2-(trifluoromethyl)phenyl)ethyl)piperazin-1-yl)-9-ethyl-3-methyl-2-oxo-3,9-dihydro-2H-purin-8-yl)acetonitrile] | > 150000 | 350 |
| CCn1c(CC#N)nc2c(N3C[C@@H](C)N(C(C)c4ccc(F)c(C(F)F)c4)C[C@@H]3C)nc(=O)n(C)c21 (stereo partly drawn) [Compound A112, 2-(6-((2S,5R)-4-(1-(3-(difluoromethyl)-4-fluorophenyl)ethyl)-2,5-dimethylpiperazin-1-yl)-9-ethyl-3-methyl-2-oxo-3,9-dihydro-2H-purin-8-yl)acetonitrile] | > 150000 | 35 |
| CC(c1ccc(F)cc1OC(F)F)N1C[C@H](C)N(c2nc(=O)n(C)c3c2nc(CC#N)n3C)C[C@H]1C (stereo partly drawn) [Compound A25, 2-(6-((2S,5R)-4-(1-(2-(difluoromethoxy)-4-fluorophenyl)ethyl)-2,5-dimethylpiperazin-1-yl)-3,9-dimethyl-2-oxo-3,9-dihydro-2H-purin-8-yl)acetonitrile] | 36900 | 15 |
| CC[C@@H]1CN(c2nc(=O)n(C)c3c2nc(CC#N)n3C)[C@@H](C)CN1C(C)c1ccc2c(n1)OC(C)(C)CO2 (mixture of isomers) [Compound A159, 2-(6-((2S,5R)-4-(1-(3,3-dimethyl-2,3-dihydro-[1,4]dioxino[2,3-b]pyridin-6-yl)ethyl)-5-ethyl-2-methylpiperazin-1-yl)-3,9-dimethyl-2-oxo-3,9-dihydro-2H-purin-8-yl)acetonitrile] | 31500 | 11 |
| CC[C@@H]1CN(c2nc(=O)n(C)c3c2nc(CC#N)n3CC)[C@@H](C)CN1C(C)c1ccc2c(n1)OC(C)(C)CO2 (single isomer, unassigned) [Compound A158b] | > 150000 | 407 |
| CC(c1ccc2c(c1)OC(C)(C)O2)N1C[C@H](C)N(c2nc(=O)n(C)c3c2nc(CC#N)n3C)C[C@H]1C (single isomer, unassigned) [Compound A98a] | 14300 | 5 |

From patent US20260125378A2, “Heterocyclic Compounds” (BeOne Medicines I GmbH, priority 2023, published 2026)
